The record followed here is US12667563B2, “Prophylactic or therapeutic agent for porphyria” (TANABE PHARMA CORPORATION, priority 2020, dated 2026).

SMILES strings stand for the structures.

Holding throughout (type): in vivo, human
Assay [1] concerns patients with erythropoietic protoporphyria or X-linked porphyria. The experiment in a line: Number of pain events recorded in electronic diary by patients during 16-week evaluation period of clinical trial. Conditions: for reduction of pain events relative to the placebo administration group: 16 weeks; for Incidence rate of pain: N 24, 16-week evaluation period (placebo 7.5). The procedure: Compound A was administered to adult male and female patients with erythropoietic protoporphyria or X-linked porphyria for 16 weeks in a randomized double-blind clinical trial. As another endpoint for the clinical effect, the number of pain events during the evaluation period of 16 weeks was recorded in an electronic diary by the patients themselves.
The incidence rates of pain during the evaluation period in the placebo administration group, the 100-mg compound A-administration group, and the 300-mg compound A-administration group were 7.5, 3.3, and 3.5, respectively.

Assay [2] has the same test system. The assay can be described thus: Health-related QOL: PGIC (Patient Global Impression of Change) score in clinical trial. The following applies: 7-point scale, 7 = remarkable improvement (placebo 2.9), P value <0.001. The procedure:
Compound A was administered to adult male and female patients with erythropoietic protoporphyria or X-linked porphyria for 16 weeks in a randomized double-blind clinical trial. As a secondary endpoint for the clinical effect, the PGIC (Patient Global Impression of Change) score, which is a health-related QOL, of each patient at week 16 was recorded by the patients themselves, More specifically, each patient was provided with a questionnaire for scoring the degree of improvement of the overall physical and mental health conditions on a 7-point scale.
The PGIC scores at week 16 in the placebo-administration group, the 100-mg compound A-administration group, and the 300-mg compound A-administration group were 2.9, 6.4, and 6.6, respectively.

The test system is the same in assay [3]. The experiment in a line: Time to occurrence of phototoxicity-related symptom in randomized double-blind clinical trial. Conditions: for Least squares mean of the length of time (in minutes) before the first occurrence of a symptom in a day: week 16. The procedure: Compound A was administered to adult male and female patients with erythropoietic protoporphyria or X-linked porphyria for 16 weeks in a randomized double-blind clinical trial. As a primary endpoint for the clinical effect, the time to the first symptom due to exposure to light, including indirect sunlight as well as direct sunlight, during the period from 1 hour after sunrise to 1 hour before sunset was evaluated.
The baseline median of the erythrocyte protoporphyrin IX level was determined by measuring the protoporphyrin IX level in the fraction of erythrocytes in blood.
The median of the melanin density was determined h spectrophotometric measurement for the skin at the following six sites: the forehead, the left cheek, the inner side of the right upper arm, the inner side of the left forearm, the right side of the abdomen, and the left side of the hip.
The test in Example 2 was conducted in the Northern Hemisphere.

Consider `COC[C@H]1CN(C(=O)[C@]2(F)CN(C3CCCC3)C[C@H]2c2ccc(OC)cc2)C[C@@H]1c1ccc(C(F)(F)F)cc1N1CCC(C(=O)O)CC1.O=P(O)(O)O` [Compound A, cocrystal containing 1-{2-[(3S,4R)-1-{[(3R,4R)-1-cyclopentyl-3-fluoro-4-(4-methoxyphenyl)pyrrolidin-3-yl]carbonyl}-4-(methoxymethyl)pyrrolidin-3-yl]-5-(trifluoromethyl)phenyl}piperidine-4-carboxylic acid and phosphoric acid], for which the “reduction of pain events relative to the placebo administration group” value stood at 60% in assay [1] (100 mg orally once daily) and 50% in assay [1] (300 mg orally once daily). Moreover, the “Incidence rate of pain” value in assay [1] (100 mg orally once daily) came out at 3.3; in assay [1] (300 mg orally once daily), 3.5. Further, the “Incidence rate of pain, ratio to placebo” value in assay [1] (100 mg orally once daily, P value 0.027) was 0.4; in assay [1] (300 mg orally once daily, P value 0.028), 0.5. Moreover, the “Least squares mean of the PGIC scores” value in assay [2] (100 mg orally once daily, N 25, week 16) was found to be 6.4; in assay [2] (300 mg orally once daily, N 24, week 16), 6.6. Besides, the “Least squares mean of the length of time (in minutes) before the first occurrence of a symptom in a day” value is 52.8 min in assay [3] (100 mg (N = 15) vs placebo (N = 15), subgroup with initial dosing in fall or winter, P value 0.029); 54.4 min in assay [3] (100 mg (N = 18) vs placebo (N = 20), subgroup with initial dosing in spring or summer, P value 0.073); 53.8 min in assay [3] (100 mg orally once daily (N = 33) vs placebo (N = 35), P value 0.008); 95.8 min in assay [3] (300 mg (N = 16) vs placebo (N = 15), subgroup with initial dosing in fall or winter, P value <0.001); 42.2 min in assay [3] (300 mg (N = 18) vs placebo (N = 20), subgroup with initial dosing in spring or summer, P value 0.168); 62.5 min in assay [3] (300 mg orally once daily (N = 34) vs placebo (N = 35), P value 0.003). The “least squares mean of the time (in minutes) to the first occurrence of the symptom in a day” value came out at 69.3 min in assay [3] (100 mg, patient group with baseline median erythrocyte protoporphyrin IX level not less than 1980.50 mcg/dL, P value 0.020); 23.2 min in assay [3] (100 mg, patient group with median melanin density less than 3.0915, P value 0.499); 85.0 min in assay [3] (100 mg, patient group with median melanin density not less than 3.0915, P value <0.001); 82.6 min in assay [3] (300 mg, patient group with baseline median erythrocyte protoporphyrin IX level not less than 1980.50 mcg/dL, P value 0.003); 63.7 min in assay [3] (300 mg, patient group with median melanin density less than 3.0915, P value 0.051); 80.3 min in assay [3] (300 mg, patient group with median melanin density not less than 3.0915, P value 0.002). Moreover, the “time to the first occurrence of the symptom in a day” value in assay [3] (patient group with baseline median erythrocyte protoporphyrin IX level less than 1980.50 mcg/dL) is given as “tended to be prolonged”.
